“Also recorded” adds a separate entry of the source.
Assays:
Aβ42 = molecular target: T1, Aβ42 (Homo sapiens, UniProt P05067); experiment: ThT Aβ42 aggregation kinetics with 10% pre-formed fibril seeds (elongation dominant); format: biochemical; settings: 2 μM Aβ42, 10-fold excess
T1 construct: The recombinant Aβ (M1-42) peptide; made in house; host or cells: E. coli BL21 Gold (DE3)
Description: Samples were then collected from the wells into low-binding tubes and sonicated for 2 min in a sonicator bath at room temperature. Under the considered conditions (i.e. 4 μM Aβ42), the monomer concentration is negligible at equilibrium (31). The final concentration of fibrils, in monomer equivalents, was considered equal to the initial concentration of monomer. Fibrils were then added to freshly prepared monomer in order to reach either 5% or 10% fibrils final concentration.
Assays were initiated by placing the 96-well plate at 37° C. under quiescent conditions in a plate reader (Fluostar Omega, Fluostar Optima or Fluostar Galaxy, BMGLabtech, Offenburg, Germany). The ThT fluorescence was measured through the bottom of the plate with a 440 nm excitation filter and a 480 nm emission filter. The ThT fluorescence was followed for three repeats of each sample. […]

[1] = test system: C. elegans CL2122 (control-worm); experiment: C. elegans motility assay, control-worm model; design: species or system Caenorhabditis elegans; settings: in vivo
Description: Standard conditions were used for Caenorhabditis elegans propagation at 20° C. (53). Briefly, animals were synchronized by hypochlorite bleaching, hatched overnight in M9 buffer, and subsequently cultured on nematode growth medium (NGM, USP agar) plates seeded with the E. coli strain OP50. Saturated cultures of OP50 were grown by inoculating 50 mL of LB medium with OP50 and incubating the culture for 16 h at 37° C. NGM plates were seeded with bacteria by adding 350 μl of saturated OP50 to each plate and leaving the plates at room temperature for 2-3 days. […]
(§1) All populations were cultured at 20° C. and developmentally synchronized from a 4 h egg-lay. At 64-72 h post egg-lay (time zero) individuals were shifted to 23° C. or 25° C., and body movement assessed over time as indicated. At different ages, animals were washed out of the plates with M9 and spread over an un-seeded 6 cm plate, after which their movements were recorded at 30 fps using a home-made microscopic setup, at 0.75× magnification, for 30 s or 1 min. 200 animals were counted per experiment unless stated otherwise. […]
(§2) Videos were elaborated using ImageJ (National Institutes of Health, Bethesda, Md., USA), and body bends were quantified using the wrMTrck plug-in (http://www.phage.dk/plugins/wrmtrck.html), developed by Jesper Søndergaard Pedersen.

[2] = test system: C. elegans GMC101 (Aβ-worm); experiment: NIAD-4 staining of amyloid aggregates in living C. elegans; format: in vivo, Caenorhabditis elegans
Description: Live transgenic animals were incubated with NIAD-4 over a range of concentrations and times, and it was empirically determined that incubation of living animals with 1 μM NIAD-4 (0.1% DMSO in M9 buffer) for four hours at room temperature gave robust and reproducible staining. After staining, animals were Let recover on NGM plates for about 24 hrs to allow destaining via normal metabolism. Stained animals were mounted on 2% agarose pads containing 40 mM NaN3 as anaesthetic on glass microscope slides for imaging. Images were captured with a Zeiss Axio Observer.D1 fluorescence microscope (Carl Zeiss Microscopy GmbH, Jena, Germany) with a 20× objective and a 49004 ET-CY3/TRITC filter (Chroma Technology Corp, Bellows Falls, Vt., USA). Fluorescence intensity was calculated using ImageJ software (National Institutes of Health, Bethesda, Md., USA), and then normalized as the corrected total cell fluorescence (CTCF). Only the head region was considered, due to the high background signal in the guts. All experiments were carried out in triplicate and the data from one representative experiment are shown. Statistical significance was determined using t tests.

[3] = test system: C. elegans GMC101 (Aβ-worm); experiment: C. elegans motility assay (body bends), Aβ-worm model; format: in vivo, Caenorhabditis elegans
Description: Standard conditions were used for Caenorhabditis elegans propagation at 20° C. (53). Briefly, animals were synchronized by hypochlorite bleaching, hatched overnight in M9 buffer, and subsequently cultured on nematode growth medium (NGM, USP agar) plates seeded with the E. coli strain OP50. Saturated cultures of OP50 were grown by inoculating 50 mL of LB medium with OP50 and incubating the culture for 16 h at 37° C. NGM plates were seeded with bacteria by adding 350 μl of saturated OP50 to each plate and leaving the plates at room temperature for 2-3 days. On day 3 after synchronization, animals were placed on NGM plates containing 5-fluoro-2′deoxy-uridine (FUDR) ([…], unless stated otherwise) to inhibit growth of offspring.
The following strains were used: dvls100[unc-54p::A-beta-1-42::unc-54 3′-UTR+mtl-2p::GFP] (GMC101). mtl-2p::GFP produces constitutive expression of GFP in intestinal cells. unc-54p::A-beta-1-42 expresses full-length human Aβ42 peptide in bodywall muscle cells that aggregates in vivo. Shifting L4 or young adult animals from 20 C° to 25 C° causes paralysis dvls15[pPD30.38 (unc-54 vector)+mtl-2::GFP (pCL26)] (CL2122), control strain for GMC101 (57). Phenotype apparently WT. C. elegans var Bristol (N2). Generation time is about 3 days. Brood size is about 350. Isolated from mushroom compost near Bristol, England. […]
as §1, §2

T1 sequence (P05067 672-713 limits assumed): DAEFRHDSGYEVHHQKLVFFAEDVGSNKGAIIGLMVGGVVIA

SMILES: C=C(c1ccc(C(=O)O)cc1)c1cc2c(cc1C)C(C)(C)CCC2(C)C [bexarotene]
- effect on aggregation kinetics with 10% fibril seeds (Aβ42): no effect was observed
- effect in control-worm model [1]: did not show any effects
- time for which formation of Aβ42 fibrils was suppressed ([2]; 10 μM): 9 days of adulthood
- level of aggregates (NIAD-4 fluorescence) ([2]; Aβ-worm model in the presence of bexarotene): essentially no aggregates being detected
- motility (frequency of body bends) of Aβ-worms ([3]; 10 μM, two bursts at L1 and L4 larval stages): maintained completely; also recorded: Complete recovery
- motility of Aβ-worms, concentration dependence ([3]; 5 to 10 μM added at larval stages): concentration-dependent maintenance
- effect on motility of Aβ-worms when added only at day 2 ([3]; added only at day 2): did not show any detectable effect

— patent US11536729B2, “Method of identifying novel protein aggregation inhibitors based on chemical kinetics” (Cambridge Enterprise Limited, priority 2016, dated 2022)
